Experimental data published in patent publication US20210230123A1, “INHIBITORS OF ALPHA-AMINO-BETA-CARBOXYMUCONIC ACID SEMIALDEHYDE DECARBOXYLASE” (TES Pharma S.r.l., priority 2016, published 2021).

What follows are compounds tested against T1, hACMSD (Homo sapiens, UniProt Q8TDX5) (assay: Determination of ACMSD1 inhibition (spectrophotometrical in vitro assay)). Conditions: HAA concentration of 10 μM, 25° C.
T1 construct: made in house; host or cells: Pichia pastoris
Format: biochemical
Method: The activity of compounds as inhibitors of ACMSD1 is determined in a spectrophotometrical in vitro assay. The pre-assay mixture is incubated and a compound of Formula (I), Formula (Ia), Formula (Ib), Formula (Ic), Formula (Id), Formula (Ie), Formula (If), Formula (Ig), Formula (Ih), Formula (Ii), Formula (Ij), Formula (II), Formula (IIa), Formula (IIb), Formula (IIc), Formula (IId), Formula (IIe), Formula (IIf), Formula (IIg), Formula (IIh), Formula (IIi), Formula (IIj), Formula (IIk), and Formula (IIl), or a pharmaceutically acceptable salt thereof, and ACMSD1 solution is then added. The effect of ACMS concentration on the enzyme activity is investigated by varying 3-hydroxyanthranilic acid (30H-HA) concentration in the pre-assay mixture. Kinetic parameters are calculated from the initial velocity data using a Lineweaver-Burk plot.
The inhibition activity of ACMSD1 of compounds disclosed herein was determined by measuring the conversion of 30H-Anthranilic Acid into product (i.e., ACMS) in a spectrophotometrical in vitro assay.
The pre-assay mixture consisting of 3-hydroxyanthranilic acid (30H-HA), 3-hydroxyanthranilic acid, 3,4-diOxygenase (HAO), and a dialyzed crude extract of E. coli BL21 (DE3) cells expressing the recombinant enzyme, was incubated at 25° C. with monitoring of the increase in absorbance at 360 nm due to the formation of ACMS from 30H-HA. After the reaction was completed within 2 mins, an aliquot of ACMSD1 solution (prepared and purified from Pichia Pastoris overexpressing the recombinant enzyme) was added, and the decrease in absorbance at 360 nm was followed at 15 second intervals. The effect of ACMS concentration on the enzyme activity was investigated by varying 30H-HA concentration from 2 to 20 µM. Kinetic parameters were calculated from the initial velocity data by using the Lineweaver-Burk plot.
The rate of the decrease in absorbance caused by ACMSD1 was calculated by subtracting that of the control reaction mixture without ACMSD from that described above. One unit of ACMSD activity was indicated as the amount of enzyme that converts 1 mmol of ACMS per minute at 25° C. The absence or a reduction of ACMSD1 activity (e.g., by using ACMSD inhibitors) results in a slow ACMS-spontaneous degradation (i.e., cyclization to form quinolic acid).
The enzymatic activity was determined at a HAA concentration of 10 μM in the presence of the compounds in Table 1 below. The compounds were tested at the concentration of about […] and 10 μM and the IC50 was calculated for compounds showing inhibitory activity higher than 500.

T1 sequence (Q8TDX5 whole entry): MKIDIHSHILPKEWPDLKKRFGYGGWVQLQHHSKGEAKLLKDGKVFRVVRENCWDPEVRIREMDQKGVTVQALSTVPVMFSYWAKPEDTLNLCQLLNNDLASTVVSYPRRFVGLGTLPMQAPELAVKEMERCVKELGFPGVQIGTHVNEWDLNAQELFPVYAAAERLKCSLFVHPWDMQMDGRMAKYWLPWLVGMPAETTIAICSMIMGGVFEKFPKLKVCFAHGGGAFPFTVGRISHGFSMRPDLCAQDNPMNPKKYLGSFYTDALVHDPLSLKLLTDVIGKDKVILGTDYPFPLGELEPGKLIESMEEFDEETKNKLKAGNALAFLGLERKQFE

| SMILES | IC50 [µM] |
| --- | --- |
| CCOc1cc(/C=C/c2[nH]c(=O)[nH]c(=O)c2[N+](=O)[O-])ccc1OCC(=O)O [I-17, (E)-2-(2-ethoxy-4-(2-(5-nitro-2,6-dioxo-1,2,3,6-tetrahydropyrimidin-4-yl)vinyl)henoxy)acetic acid] | 1 to 2 |
| COc1cccc(/C=C/c2[nH]c(=S)[nH]c(=O)c2C#N)c1 [I-10, (E)-6-(3-methoxystyryl)-4-oxo-2-thioxo-1,2,3,4-tetrahydropyrimidine-5-carbonitrile] | 0.1 to 1 |
| COc1cccc(/C=C/c2[nH]c(=S)[nH]c(=O)c2C#N)c1OC(C)(C)C(=O)O [I-8, (E)-2-(2-(2-(5-cyano-6-oxo-2-thioxo-1,2,3,6-tetrahydropyrimidin-4-yl)vinyl)-6-methoxyphenoxy)-2-methylpropanoic acid] | 0.1 to 1 |
| COc1cccc(/C=C/c2[nH]c(=S)[nH]c(=O)c2C#N)c1OC(C)C(=O)O (stereo not shown) [I-9, (E)-2-(2-(2-(5-cyano-6-oxo-2-thioxo-1,2,3,6-tetrahydropyrimidin-4-yl)vinyl)-6-methoxyphenoxy)propanoic acid] | 0.1 to 1 |
| N#Cc1c(/C=C/c2ccccc2OCC(=O)O)[nH]c(=S)[nH]c1=O [I-6, (E)-2-(2-(2-(5-cyano-6-oxo-2-thioxo-1,2,3,6-tetrahydropyrimidin-4-yl)vinyl)phenoxy)acetic acid] | 0.1 to 1 |
| COc1cccc(/C=C/c2nc(SC)[nH]c(=O)c2C#N)c1OCC(=O)O [I-15, (E)-2-(2-(2-(5-cyano-2-(methylthio)-6-oxo-1,6-dihydropyrimidin-4-yl)vinyl)-6-methoxyphenoxy)acetic acid] | 0.1 to 1 |

Continued, values first:

| IC50 [µM] | SMILES |
| --- | --- |
| 1 to 2 | N#Cc1c(/C=C/c2cccc(OCC(=O)O)c2)[nH]c(=O)[nH]c1=O [I-3, (E)-2-(3-(2-(5-cyano-2,6-dioxo-1,2,3,6-tetrahydropyrimidin-4-yl)vinyl)phenoxy)acetic acid] |
| 0.1 to 1 | N#Cc1c(/C=C/c2ccccc2-c2cc(F)c(O)c(F)c2)[nH]c(=O)[nH]c1=O [I-4, (E)-6-(2-(3′,5′-difluoro-4′-hydroxy-[1,1′-biphenyl]-2-yl)vinyl)-2,4-dioxo-1,2,3,4-tetrahydropyrimidine-5-carbonitrile] |
| 0.1 to 1 | COc1cccc(/C=C/c2[nH]c(=O)[nH]c(=O)c2C#N)c1OCC(=O)O [I-2, (E)-2-(2-(2-(5-cyano-2,6-dioxo-1,2,3,6-tetrahydropyrimidin-4-yl)vinyl)-6-methoxyphenoxy)acetic acid] |
| 0.1 to 1 | N#Cc1c(-c2cccc(-c3cccc(C(=O)O)c3)c2)[nH]c(=S)[nH]c1=O [I-16, 3′-(5-cyano-6-oxo-2-thioxo-1,2,3,6-tetrahydropyrimidin-4-yl)-[1,1′-biphenyl]-3-carboxylic acid] |
